Assays:
[1] = target: Mitogen-activated protein kinase kinase kinase 11 (Homo sapiens) (UniProt Q16584); assay: Inhibition of MLK3 conserved Lys2 (DLKSNNILLLQPIESDDMEHK) in human PBMC at 0.1 uM
[2] = target: Phosphatidylinositol 5-phosphate 4-kinase type-2 gamma (Homo sapiens) (UniProt Q8TBX8); assay: Inhibition of PIP4K2C ATP binding site (TLVIKEVSSEDIADMHSNLSNYHQYIVK) in human PBMC at 0.1 uM
[3] = target: Mitogen-activated protein kinase 9 (Homo sapiens) (UniProt P45984); assay: Inhibition of JNK2 conserved Lys2 (DLKPSNIVVK) in human PBMC at 1 uM
[4] = target: Ribosomal protein S6 kinase alpha-3 (Homo sapiens) (UniProt P51812); assay: Inhibition of RSK2 domain1 activation Loop (LTDFGLSKESIDHEKK) in human PBMC at 0.1 uM
Ribosomal protein S6 kinase alpha-3 (Homo sapiens), sequence (P51812 whole entry, the tested form may be a part): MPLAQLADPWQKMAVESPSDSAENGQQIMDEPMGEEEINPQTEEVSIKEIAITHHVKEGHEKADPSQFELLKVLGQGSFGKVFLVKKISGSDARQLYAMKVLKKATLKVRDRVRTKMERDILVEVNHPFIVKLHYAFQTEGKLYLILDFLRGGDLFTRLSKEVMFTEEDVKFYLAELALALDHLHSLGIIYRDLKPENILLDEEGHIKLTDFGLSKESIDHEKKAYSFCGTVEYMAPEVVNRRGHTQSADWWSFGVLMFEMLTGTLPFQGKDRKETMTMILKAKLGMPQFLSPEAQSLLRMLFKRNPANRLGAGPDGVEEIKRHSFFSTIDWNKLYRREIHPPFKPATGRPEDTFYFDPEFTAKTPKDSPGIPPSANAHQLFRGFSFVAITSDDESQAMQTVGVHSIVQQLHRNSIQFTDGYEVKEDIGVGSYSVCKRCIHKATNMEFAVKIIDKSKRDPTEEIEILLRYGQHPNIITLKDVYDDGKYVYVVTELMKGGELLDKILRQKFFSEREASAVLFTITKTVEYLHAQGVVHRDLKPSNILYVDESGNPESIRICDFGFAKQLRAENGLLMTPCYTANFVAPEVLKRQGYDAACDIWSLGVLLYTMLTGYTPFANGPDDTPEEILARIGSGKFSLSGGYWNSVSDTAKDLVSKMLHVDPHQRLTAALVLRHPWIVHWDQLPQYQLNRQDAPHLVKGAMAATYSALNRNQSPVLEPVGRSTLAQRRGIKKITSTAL

[5] = target: T1, Serine/threonine-protein kinase ULK3 (Homo sapiens) (UniProt Q6PHR2); assay: Inhibition of ULK3 conserved Lys1 (EVVAIKCVAK) in human PBMC at 0.1 uM
T1 sequence (whole entry): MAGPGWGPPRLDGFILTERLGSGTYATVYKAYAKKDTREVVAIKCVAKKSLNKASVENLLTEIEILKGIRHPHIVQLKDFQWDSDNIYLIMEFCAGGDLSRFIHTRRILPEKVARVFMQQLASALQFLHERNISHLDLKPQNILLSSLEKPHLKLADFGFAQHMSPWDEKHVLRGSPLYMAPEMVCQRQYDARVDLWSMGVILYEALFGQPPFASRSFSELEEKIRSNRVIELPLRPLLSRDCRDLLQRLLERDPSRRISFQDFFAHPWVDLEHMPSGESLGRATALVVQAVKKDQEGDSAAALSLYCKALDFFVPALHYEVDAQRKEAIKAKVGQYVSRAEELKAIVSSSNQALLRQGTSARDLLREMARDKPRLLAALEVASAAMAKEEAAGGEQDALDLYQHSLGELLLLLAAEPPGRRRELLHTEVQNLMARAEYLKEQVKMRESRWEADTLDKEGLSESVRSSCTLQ

[6] = target: Myosin light chain kinase, smooth muscle (Homo sapiens) (UniProt Q15746); assay: Inhibition of smMLCK conserved Lys1 (VWAGKFFK) in human PBMC at 0.1 uM
Myosin light chain kinase, smooth muscle (Homo sapiens), sequence (Q15746 whole entry): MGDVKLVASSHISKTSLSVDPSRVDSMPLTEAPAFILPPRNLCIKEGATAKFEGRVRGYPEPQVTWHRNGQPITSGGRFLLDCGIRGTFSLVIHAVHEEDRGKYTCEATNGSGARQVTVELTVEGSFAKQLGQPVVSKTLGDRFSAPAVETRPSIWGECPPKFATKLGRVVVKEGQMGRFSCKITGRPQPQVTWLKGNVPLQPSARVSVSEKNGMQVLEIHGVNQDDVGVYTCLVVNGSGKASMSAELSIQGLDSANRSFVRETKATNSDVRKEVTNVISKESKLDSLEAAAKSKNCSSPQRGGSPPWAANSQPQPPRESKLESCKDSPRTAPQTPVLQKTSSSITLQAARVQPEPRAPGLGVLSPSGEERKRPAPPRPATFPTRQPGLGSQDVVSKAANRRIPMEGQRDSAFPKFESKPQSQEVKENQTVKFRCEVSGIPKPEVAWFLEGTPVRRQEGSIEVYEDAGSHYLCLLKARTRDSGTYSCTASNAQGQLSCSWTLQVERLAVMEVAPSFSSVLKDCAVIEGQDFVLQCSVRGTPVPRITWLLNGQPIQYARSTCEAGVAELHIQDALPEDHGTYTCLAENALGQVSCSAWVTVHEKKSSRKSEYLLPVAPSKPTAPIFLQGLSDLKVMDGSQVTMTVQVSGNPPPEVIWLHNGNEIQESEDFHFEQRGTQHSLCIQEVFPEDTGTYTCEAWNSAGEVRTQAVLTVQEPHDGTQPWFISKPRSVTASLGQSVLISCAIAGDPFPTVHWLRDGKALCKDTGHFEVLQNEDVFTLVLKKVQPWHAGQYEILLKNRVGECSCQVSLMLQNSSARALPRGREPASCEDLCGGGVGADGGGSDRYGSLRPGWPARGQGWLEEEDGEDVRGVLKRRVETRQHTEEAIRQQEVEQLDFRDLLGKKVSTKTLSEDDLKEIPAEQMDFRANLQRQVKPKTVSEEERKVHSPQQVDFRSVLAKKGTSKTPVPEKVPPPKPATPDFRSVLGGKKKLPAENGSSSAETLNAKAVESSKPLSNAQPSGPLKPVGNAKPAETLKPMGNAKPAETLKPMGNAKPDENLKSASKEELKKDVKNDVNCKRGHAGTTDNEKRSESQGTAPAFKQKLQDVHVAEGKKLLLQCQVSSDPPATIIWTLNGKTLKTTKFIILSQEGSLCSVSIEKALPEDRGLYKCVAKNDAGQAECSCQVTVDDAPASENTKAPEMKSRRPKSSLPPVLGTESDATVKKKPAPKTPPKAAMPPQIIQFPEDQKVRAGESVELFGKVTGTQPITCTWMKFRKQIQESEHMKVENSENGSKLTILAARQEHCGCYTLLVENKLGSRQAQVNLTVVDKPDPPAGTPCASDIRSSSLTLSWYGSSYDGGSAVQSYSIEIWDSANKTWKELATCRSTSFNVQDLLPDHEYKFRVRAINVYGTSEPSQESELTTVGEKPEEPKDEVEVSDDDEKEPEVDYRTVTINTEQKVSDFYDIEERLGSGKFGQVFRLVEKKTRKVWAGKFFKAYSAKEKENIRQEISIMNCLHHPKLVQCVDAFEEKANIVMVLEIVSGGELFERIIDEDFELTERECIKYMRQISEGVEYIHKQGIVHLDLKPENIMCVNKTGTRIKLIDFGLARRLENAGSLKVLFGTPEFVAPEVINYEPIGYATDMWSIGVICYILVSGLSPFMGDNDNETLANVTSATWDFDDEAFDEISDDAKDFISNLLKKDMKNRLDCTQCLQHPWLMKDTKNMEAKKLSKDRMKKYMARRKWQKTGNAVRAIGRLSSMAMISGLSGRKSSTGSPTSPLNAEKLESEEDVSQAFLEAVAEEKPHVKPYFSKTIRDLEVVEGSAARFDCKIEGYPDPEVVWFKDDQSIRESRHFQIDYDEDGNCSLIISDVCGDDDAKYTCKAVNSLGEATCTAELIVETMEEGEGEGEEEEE

[7] = target: Mitogen-activated protein kinase 13 (Homo sapiens) (UniProt O15264); assay: Inhibition of p38d conserved Lys2 (DLKPGNLAVNEDCELK) in human PBMC at 0.1 uM
Mitogen-activated protein kinase 13 (Homo sapiens), sequence (O15264 whole entry): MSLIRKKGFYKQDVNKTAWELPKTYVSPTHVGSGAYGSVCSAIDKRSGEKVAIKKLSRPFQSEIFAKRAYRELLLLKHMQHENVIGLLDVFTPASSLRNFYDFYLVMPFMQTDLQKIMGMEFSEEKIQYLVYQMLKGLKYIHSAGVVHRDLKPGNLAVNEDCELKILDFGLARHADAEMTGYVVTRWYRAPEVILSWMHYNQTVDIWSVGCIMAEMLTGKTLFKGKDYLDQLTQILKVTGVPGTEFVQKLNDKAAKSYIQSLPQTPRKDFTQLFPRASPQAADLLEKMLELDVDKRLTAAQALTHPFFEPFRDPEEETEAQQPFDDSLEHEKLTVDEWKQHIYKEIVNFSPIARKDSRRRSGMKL

[8] = target: Tyrosine-protein kinase HCK (Homo sapiens) (UniProt P08631); assay: Inhibition of HCK activation Loop (EGAKFPIKWTAPEAINFGSFTIK) in human PBMC at 0.1 uM
[9] = target: 5'-AMP-activated protein kinase catalytic subunit alpha-2 (Homo sapiens) (UniProt P54646); assay: Inhibition of AMPKa2 labeling at conserved Lys2 (DLKPENVLLDAHMNAK) in human PBMC at 1 uM
[10] = target: T2, Mitogen-activated protein kinase kinase kinase 6 (Homo sapiens) (UniProt O95382); assay: Inhibition of MAP3K6 conserved Lys2 (DIKGDNVLINTFSGLLK) in human PBMC at 0.1 uM
T2 sequence (whole entry): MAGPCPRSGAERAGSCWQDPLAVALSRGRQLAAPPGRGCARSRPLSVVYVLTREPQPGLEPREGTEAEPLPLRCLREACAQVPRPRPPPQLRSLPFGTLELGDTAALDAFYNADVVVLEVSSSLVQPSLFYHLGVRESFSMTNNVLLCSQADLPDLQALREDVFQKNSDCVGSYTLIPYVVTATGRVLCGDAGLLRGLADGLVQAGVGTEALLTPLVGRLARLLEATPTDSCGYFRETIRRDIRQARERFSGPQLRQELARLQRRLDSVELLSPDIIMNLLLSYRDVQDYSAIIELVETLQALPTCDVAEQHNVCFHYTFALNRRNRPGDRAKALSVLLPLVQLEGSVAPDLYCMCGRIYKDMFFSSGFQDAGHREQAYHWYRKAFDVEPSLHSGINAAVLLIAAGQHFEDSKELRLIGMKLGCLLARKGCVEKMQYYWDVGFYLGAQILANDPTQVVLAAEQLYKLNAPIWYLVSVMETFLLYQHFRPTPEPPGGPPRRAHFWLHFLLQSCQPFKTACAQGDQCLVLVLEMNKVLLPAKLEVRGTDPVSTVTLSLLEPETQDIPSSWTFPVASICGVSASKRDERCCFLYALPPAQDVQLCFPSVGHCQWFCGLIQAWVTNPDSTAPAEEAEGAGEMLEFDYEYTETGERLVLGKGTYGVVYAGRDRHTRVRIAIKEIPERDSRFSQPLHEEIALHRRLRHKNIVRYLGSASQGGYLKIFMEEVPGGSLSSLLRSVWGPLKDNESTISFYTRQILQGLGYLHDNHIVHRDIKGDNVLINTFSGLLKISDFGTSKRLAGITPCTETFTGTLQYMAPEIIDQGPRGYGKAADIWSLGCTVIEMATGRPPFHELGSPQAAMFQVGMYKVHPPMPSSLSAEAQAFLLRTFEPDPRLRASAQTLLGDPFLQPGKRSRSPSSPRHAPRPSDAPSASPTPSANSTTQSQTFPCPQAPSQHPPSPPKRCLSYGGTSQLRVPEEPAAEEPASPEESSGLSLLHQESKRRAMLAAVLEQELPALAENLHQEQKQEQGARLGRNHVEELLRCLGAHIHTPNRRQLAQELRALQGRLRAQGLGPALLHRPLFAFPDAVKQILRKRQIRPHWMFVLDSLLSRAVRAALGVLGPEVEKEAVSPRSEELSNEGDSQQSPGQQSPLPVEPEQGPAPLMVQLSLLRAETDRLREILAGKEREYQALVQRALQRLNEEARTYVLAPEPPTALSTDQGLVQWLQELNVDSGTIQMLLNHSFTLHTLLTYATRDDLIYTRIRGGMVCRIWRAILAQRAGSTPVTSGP

[11] = target: Dual specificity mitogen-activated protein kinase kinase 1 (Homo sapiens) (UniProt Q02750); assay: Inhibition of MAP2K1 conserved Lys2 (IMHRDVKPSNILVNSR) in human PBMC at 0.1 uM
[12] = target: Cyclin-dependent kinase 17 (Homo sapiens) (UniProt Q00537); assay: Inhibition of PCTAIRE2 conserved Lys2 (DLKPQNLLINEK) in human PBMC at 0.1 uM
[13] = target: Dual specificity mitogen-activated protein kinase kinase 3 (Homo sapiens) (UniProt P46734); assay: Inhibition of MAP2K3 conserved Lys2 (DVKPSNVLINK) in human PBMC at 1 uM
[14] = target: Serine/threonine-protein kinase Chk2 (Homo sapiens) (UniProt O96017); assay: Inhibition of CHK2 labeling at conserved Lys2 (DLKPENVLLSSQEEDCLIK) in human PBMC at 0.1 uM
Serine/threonine-protein kinase Chk2 (Homo sapiens), sequence (O96017 whole entry): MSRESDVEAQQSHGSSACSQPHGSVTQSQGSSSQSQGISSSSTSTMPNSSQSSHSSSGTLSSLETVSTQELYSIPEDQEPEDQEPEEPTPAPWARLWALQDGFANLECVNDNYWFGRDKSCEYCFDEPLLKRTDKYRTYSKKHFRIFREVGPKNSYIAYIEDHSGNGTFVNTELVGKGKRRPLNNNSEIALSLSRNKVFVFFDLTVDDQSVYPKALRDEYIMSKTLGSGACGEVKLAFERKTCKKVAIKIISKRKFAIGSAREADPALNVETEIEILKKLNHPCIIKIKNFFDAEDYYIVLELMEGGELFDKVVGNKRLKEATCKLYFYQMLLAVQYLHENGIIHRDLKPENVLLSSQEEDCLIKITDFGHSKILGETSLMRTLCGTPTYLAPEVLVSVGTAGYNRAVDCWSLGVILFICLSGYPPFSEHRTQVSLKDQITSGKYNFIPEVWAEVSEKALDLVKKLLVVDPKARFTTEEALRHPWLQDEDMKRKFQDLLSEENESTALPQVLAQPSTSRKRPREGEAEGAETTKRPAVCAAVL

Phosphatidylinositol 5-phosphate 4-kinase type-2 gamma (Homo sapiens), sequence (Q8TBX8 whole entry): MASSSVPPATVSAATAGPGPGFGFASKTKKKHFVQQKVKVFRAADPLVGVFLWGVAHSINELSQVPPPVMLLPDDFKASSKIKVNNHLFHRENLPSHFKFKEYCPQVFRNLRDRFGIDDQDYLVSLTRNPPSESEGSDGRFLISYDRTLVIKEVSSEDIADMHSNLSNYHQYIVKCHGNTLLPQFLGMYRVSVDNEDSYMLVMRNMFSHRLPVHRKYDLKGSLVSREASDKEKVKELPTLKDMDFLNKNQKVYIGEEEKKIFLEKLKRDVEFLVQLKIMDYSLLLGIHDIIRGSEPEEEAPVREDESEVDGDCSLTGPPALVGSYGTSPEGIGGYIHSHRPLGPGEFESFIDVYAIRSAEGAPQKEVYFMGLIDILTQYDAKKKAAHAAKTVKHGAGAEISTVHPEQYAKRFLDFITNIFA
Mitogen-activated protein kinase kinase kinase 11 (Homo sapiens), sequence (Q16584 whole entry, looked up): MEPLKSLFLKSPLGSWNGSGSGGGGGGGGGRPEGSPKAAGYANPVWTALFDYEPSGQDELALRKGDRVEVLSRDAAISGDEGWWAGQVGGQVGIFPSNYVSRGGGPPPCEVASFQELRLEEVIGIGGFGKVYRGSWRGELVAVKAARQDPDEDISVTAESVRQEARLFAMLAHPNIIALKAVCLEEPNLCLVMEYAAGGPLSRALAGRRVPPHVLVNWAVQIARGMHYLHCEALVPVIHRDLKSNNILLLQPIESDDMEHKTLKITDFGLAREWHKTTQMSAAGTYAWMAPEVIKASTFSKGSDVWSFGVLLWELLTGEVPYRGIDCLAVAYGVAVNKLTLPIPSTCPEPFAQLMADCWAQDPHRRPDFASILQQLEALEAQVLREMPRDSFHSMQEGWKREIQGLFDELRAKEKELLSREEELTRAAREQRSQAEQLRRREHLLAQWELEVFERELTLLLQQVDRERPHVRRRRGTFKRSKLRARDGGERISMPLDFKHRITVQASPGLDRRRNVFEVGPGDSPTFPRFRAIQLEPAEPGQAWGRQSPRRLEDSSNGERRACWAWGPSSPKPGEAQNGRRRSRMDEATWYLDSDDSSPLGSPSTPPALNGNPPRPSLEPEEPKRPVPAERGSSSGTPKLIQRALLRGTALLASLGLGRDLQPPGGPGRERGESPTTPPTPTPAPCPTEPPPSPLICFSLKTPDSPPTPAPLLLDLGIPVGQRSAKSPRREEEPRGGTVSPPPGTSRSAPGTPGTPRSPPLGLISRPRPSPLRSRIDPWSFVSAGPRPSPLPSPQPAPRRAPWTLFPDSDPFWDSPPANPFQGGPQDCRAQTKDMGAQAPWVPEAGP

`CC(C)n1cc(-c2cc(-c3ccc(CN4CCOCC4)cc3)cnc2N)nn1` showed an inhibition [1] of 13.8%, an inhibition [2] of -8.1% and an inhibition [3] of 23.9%. The inhibition [4] was 7.7%, the inhibition [5] was 20.3% and the inhibition [6] was 29.6%. It also gave an inhibition [7] of 26.4%, an inhibition [8] of -7.4% and an inhibition [9] of 17.5%. For the same compound, the inhibition [10] was -0.5%, the inhibition [11] was -5.6% and the inhibition [12] was 21.7%. For the same compound, the inhibition [13] was -9.2% and the inhibition [14] was -4.8%.

Source: ChEMBL document CHEMBL4043168, “The design and SAR of a novel series of 2-aminopyridine based LRRK2 inhibitors” (Bioorg Med Chem Lett, 2017)
